Experimental data published in patent US20220296595A1, “CDK INHIBITORS” (QILU REGOR THERAPEUTICS INC., priority 2019, published 2022).
Read-outs that look alike come from different tables or passages of the source.

Experiments:
CDK4/CyclinD1 = biological target: T1, CDK4/CyclinD1 (Homo sapiens, UniProt P11802); experiment: Assay for inhibition of CDK4/CyclinD1 (Caliper microfluidic kinase assay); assay type: biochemical
T1 construct: purchased Thermofisher PR8064A
Experimental: The CDK4 enzyme assay for IC50 determination was performed as follows. Microfluidic kinase detection technology (Caliper) was used to monitor the phosphorylation of peptide substrate by CDK4/CyclinD1. The total reaction volume was 15 μL containing buffer A (100 mM HEPES (pH 7.5), 0.1% BSA, 0.01% Triton X-100, 1 mM DTT, 10 mM MgCl2, 10 μM Sodium Orthovanadate, 10 μM Beta-Glycerophosphate), 200 μM ATP, 1 nM CDK4/CyclinD1 (Thermofisher, PR8064A), 1 μM FL-34 (5-FAM-[…]), and the test compound at appropriate dilutions in DMSO. All components were added to the 384-well plate (Corning, 4514), and incubated at Room Temperature for 3 hours. The reaction was terminated by addition of 15 μL Stop Buffer (180 mM HEPES (pH 7.5), 20 mM EDTA, Coating-3 reagent (PerkinElmer, 760050)). The plate was then loaded on Caliper EZ Reader (EZ Reader II, PerkinElmer, HD-4HYSG2772), and the reaction mixtures including substrate and product were sipped into the microfluidic chip for separation and detection. The IC50 values of the test compound were determined by fitting the inhibition curves by 4 parameter sigmoidal dose-response model using the Xlfit5/GraphPad Prism 5 software.

T47D breast cancer cells = experiment: Anti-proliferation assay in T47D cell (Cyquant, day 6); assay type: cell-based, human; conditions: anti-proliferation, T47D cells, read-out: T47D IC50
From the text: T47D is a human breast cancer cell line commonly used in biomedical research involving the hormonal expression of cancer cells. T47D cells are distinct from other human breast cancer cells in that their progesterone receptors (PR) are not regulated by estradiol, a hormone that is abundant within the cells themselves. T47D cells have been employed in studies of the effects of progesterone on breast cancer and the corresponding transcriptional regulation caused by introduced drugs. The cells have been noted to be extremely resistant to estrogens and antiestrogens.
T47D breast cancer cells from American Type Culture Collection (ATCC, HTB-133) were plated at 3000 cells/well in 96-well plates, and were incubated in RPMI 1640 medium (Gibco, 31800105) with 10% Fetal Bovine Serum (FBS, Biowest, FB-1058) at 37° C., 5% CO2. After overnight incubation, baseline values were measured of the samples from one plate using Cyquant reagent (Invitrogen, C35011) following manufacturer's recommendations. Cells were incubated with the detection reagent for 1 hour at 37° C., and then the fluorescence was measured with excitation at 485 nm and emission at 535 nm using Spectra Max M5 (Molecular Devices, HD-4HYSG3196). Other plates were dosed with compounds at a ten-point dose concentration from 10 μM to 0.51 nM in a 3-fold dilution scheme. On day 6 after compound addition, Cyquant reagent was added and the fluorescence was measured using Spectra Max M5. The IC50 values of the test compound's anti-proliferation activity were determined from the baseline subtracted viability readout curve using Xlfit5/GraphPad Prism 5 software.

CDK2/CyclinE1 = biological target: T2, CDK2/CyclinE1 (Homo sapiens, UniProt P24941); experiment: Assay for inhibition of CDK2/CyclinE1 (Caliper microfluidic kinase assay); assay type: biochemical; conditions: read-out: CDK2 IC50
T2 construct: purchased SignalChem C29-18G
Experimental: The CDK2 enzyme assay for IC50 determination was performed as follows. Microfluidic kinase detection technology (Caliper) was used to monitor the phosphorylation of peptide substrate by CDK2/CyclinE1. The total reaction volume was 15 μL containing buffer A (100 mM HEPES (pH 7.5), 0.1% BSA, 0.01% Triton X-100, 1 mM DTT, 10 mM MgCl2, 10 μM Sodium Orthovanadate, 10 μM Beta-Glycerophosphate), 100 μM ATP, 5 nM CDK2/CyclinE1 (SignalChem, C29-18G), 5 μM FL-18 (5-FAM-QSPKKG-NH2), and the test compound at appropriate dilutions in DMSO. All components were added to the 384-well plate (Corning, 4514), and incubate at Room Temperature for 3 hours. The reaction was terminated by addition of 15 μL Stop Buffer (180 mM HEPES (pH 7.5), 20 mM EDTA, Coating-3 reagent (PerkinElmer, 760050)). The plate was loaded on Caliper EZ Reader (EZ Reader II, PerkinElmer, HD-4HYSG2772), and the reaction mixtures including substrate and product were sipped into the microfluidic chip for separation and detection. The IC50 values of the test compound were determined by fitting the inhibition curves by 4 parameter sigmoidal dose-response model using the Xlfit5/GraphPad Prism 5 software.

T1 sequence (P11802 whole entry): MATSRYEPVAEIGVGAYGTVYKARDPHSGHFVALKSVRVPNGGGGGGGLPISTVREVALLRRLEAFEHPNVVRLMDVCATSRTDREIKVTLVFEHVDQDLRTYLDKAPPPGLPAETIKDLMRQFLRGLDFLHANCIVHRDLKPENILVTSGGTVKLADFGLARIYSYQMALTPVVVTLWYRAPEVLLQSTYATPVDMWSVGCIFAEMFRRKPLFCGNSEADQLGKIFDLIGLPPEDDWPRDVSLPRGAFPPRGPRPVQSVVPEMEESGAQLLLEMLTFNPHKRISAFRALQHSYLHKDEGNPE
T1 sequence (P24385 whole entry partner): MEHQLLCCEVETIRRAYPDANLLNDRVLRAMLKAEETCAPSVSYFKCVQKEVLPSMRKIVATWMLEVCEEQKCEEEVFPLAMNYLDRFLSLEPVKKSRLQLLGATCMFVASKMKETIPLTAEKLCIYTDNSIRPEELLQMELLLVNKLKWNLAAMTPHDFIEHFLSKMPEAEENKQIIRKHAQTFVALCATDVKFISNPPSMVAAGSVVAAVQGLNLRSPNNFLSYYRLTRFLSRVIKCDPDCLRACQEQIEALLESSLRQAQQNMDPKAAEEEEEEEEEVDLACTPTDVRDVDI

IC50 (CDK4/CyclinD1; CDK4/CyclinD1, 200 μM ATP)	IC50 (CDK2/CyclinE1; CDK2/CyclinE1, 100 μM ATP)	IC50 (T47D breast cancer cells; Homo sapiens, T47D)	IC50 (CDK4/CyclinD1; CDK4/CyclinD1)	IC50 (CDK2/CyclinE1; CDK2/CyclinE1)	SMILES	IC50 (T47D breast cancer cells)
< 10 nM	100 to 1000 nM	100 to 500 nM			CC(C)c1cnn2ccc(-c3nc(Nc4ccc(N5CCN(C6CC6)CCC5=O)cn4)ncc3F)cc12 [Synthetic Example 49]	
100 to 1000 nM	10 to 100 nM	500 to 1000 nM			CC(C)c1cnn2ccc(-c3nc(Nc4ccc(S(C)(=O)=O)cc4)ncc3F)cc12 [compound 6]	
10 to 100 nM	100 to 1000 nM	500 to 1000 nM			O=C1COCCN1c1ccc(Nc2ncc(F)c(-c3ccn4ncc(C5CCCC5)c4c3)n2)nc1 [compound 12]	
10 to 100 nM	10 to 100 nM	< 100 nM			CCN1CC(=O)N(c2ccc(Nc3ncc(F)c(-c4ccn5ncc(C(C)C)c5c4)n3)nc2)CC1=O [compound 14]	
< 10 nM	10 to 100 nM	100 to 500 nM			CC(C)c1cnn2ccc(-c3nc(Nc4ccc(N5CCN(CCF)CCC5=O)cn4)ncc3F)cc12 [compound 54]	
		100 to 500 nM	< 10 nM	> 1000 nM	CC(C)n1cnc2c(OC(F)F)nc(-c3ccnc(Nc4ccc(N5CCC(N(C)C)CC5=O)cn4)n3)cc21 (stereo not drawn) [compound 64]	
10 to 100 nM	> 1000 nM	100 to 500 nM			CCN1CCC(Cn2ccc(Nc3nccc(-c4cc5c(ncn5C(C)C)c(OC)n4)n3)n2)CC1 [compound 135]	
< 10 nM	< 10 nM	< 100 nM			CC(C)c1cnn2ccc(-c3ccnc(Nc4ccc(N5CCC(N(C)C)C5=O)cc4)n3)cc12 (stereo not drawn) [compound 144]	
< 10 nM	10 to 100 nM	< 100 nM			CC(C)c1cnn2ccc(-c3ccnc(Nc4ccc(N5CCC(N(C)CCF)CC5=O)cn4)n3)cc12 (stereo not drawn) [compound 170]	
< 10 nM	100 to 1000 nM	100 to 500 nM			CC(C)c1cnn2ccc(-c3ccnc(Nc4ccc(N5CCCC(N(C)C)C5=O)cc4)n3)cc12 (stereo not drawn) [compound 174]	
< 10 nM	100 to 1000 nM	< 100 nM			Cc1nn2ccc(-c3ccnc(Nc4ccc(N5CCCC(N(C)C)C5=O)cc4)n3)cc2c1C(C)C (stereo not drawn) [compound 178]	
< 10 nM	10 to 100 nM	< 100 nM			CNC1CCCN(c2ccc(Nc3nccc(-c4ccn5ncc(C(C)C)c5c4)n3)cn2)C1=O (stereo not drawn) [compound 185]	
< 10 nM	< 10 nM	< 100 nM			CC(C)c1cnn2ccc(-c3ccnc(Nc4ccc(N5CCC(NCCF)CC5=O)cn4)n3)cc12 (stereo not drawn) [compound 201]	
< 10 nM	100 to 1000 nM	< 100 nM			CNC1CCCN(c2ccc(Nc3nccc(-c4ccn5ncc(C(C)C)c5c4)n3)nc2)C1=O (stereo not drawn) [compound 208]	
< 10 nM	10 to 100 nM	> 1000 nM			CC(C)c1cnn2ccc(-c3ccnc(Nc4ccc(N5C(=O)C6CC5CN6)cn4)n3)cc12 (stereo not drawn) [compound 210]	
< 10 nM	< 10 nM	500 to 1000 nM			CC(C)(C)c1cnn2ccc(-c3ccnc(Nc4ccc(N5C(=O)C6CC5CN6)cn4)n3)cc12 (stereo not drawn) [compound 211]	
< 10 nM	10 to 100 nM	< 100 nM			Cc1nn2ccc(-c3ccnc(Nc4ccc(N5CCCC(N)C5=O)cc4)n3)cc2c1C(C)C (stereo not drawn) [compound 216]	
< 10 nM	< 10 nM	< 100 nM			CC1(N)CCN(c2ccc(Nc3nccc(-c4ccn5ncc(C(C)(C)C)c5c4)n3)nc2)C(=O)C1 (stereo not drawn) [compound 219]	
< 10 nM	10 to 100 nM	< 100 nM			CC(C)(C)c1cnn2ccc(-c3ccnc(Nc4ccc(N5CCCC(N)C5=O)cn4)n3)cc12 (stereo not drawn) [compound 220]	
< 10 nM	> 1000 nM	< 100 nM			CNC1CCCN(c2ccc(Nc3nccc(-c4ccn5ncc(C(C)(C)C)c5c4)n3)nc2)C1=O (stereo not drawn) [compound 221]	
< 10 nM	10 to 100 nM	100 to 500 nM			CC(C)n1cnc2c1CN(c1nc(Nc3ccc(N4CCNCC4=O)cn3)ncc1F)CC2 [compound 238]	
< 10 nM	10 to 100 nM	100 to 500 nM			CC(C)n1cnc2c1CN(c1nc(Nc3ccc(N4CCOCC4=O)cn3)ncc1F)CC2 [compound 239]	
< 10 nM	100 to 1000 nM	500 to 1000 nM			CC(C)n1cnc2c1CN(c1ccnc(Nc3ccc(N4CCCC(N)C4=O)cc3)n1)CC2 (stereo not drawn) [compound 246]	
< 10 nM	10 to 100 nM	< 100 nM			CC(C)n1cnc2c1CN(c1nc(Nc3ccc(N4CCCC(N)C4=O)cc3)ncc1F)CC2 (stereo not drawn) [compound 247]	
< 10 nM	10 to 100 nM	< 100 nM			CNC1CCCN(c2ccc(Nc3ncc(F)c(N4CCc5ncn(C(C)C)c5C4)n3)cc2)C1=O (stereo not drawn) [compound 248]	
< 10 nM	10 to 100 nM	< 100 nM			CC(C)n1cnc2c1CN(c1nc(Nc3ccc(N4CCCC(N(C)C)C4=O)cc3)ncc1F)CC2 (stereo not drawn) [compound 249]	
< 10 nM	100 to 1000 nM	< 100 nM			CC(C)N1CCN(c2ccc(Nc3ncc(F)c(N4CCc5ncn(C(C)C)c5C4)n3)nc2)CC1 [compound 250]	
< 10 nM	< 10 nM	< 100 nM			CC(C)n1cnc2c1CN(c1nc(Nc3ccc(N4CCCC(N(C)C)C4)cc3)ncc1F)CC2 (stereo not drawn) [compound 252]	
< 10 nM	10 to 100 nM	< 100 nM			CC(C)n1cnc2c1CN(c1nc(Nc3ccc(N4CCCNC4=O)cc3)ncc1F)CC2 [compound 253]	
< 10 nM	< 10 nM	< 100 nM			CC(C)n1cnc2c1CN(c1nc(Nc3ccc(N4CCNCC4=O)cc3)ncc1F)CC2 [compound 257]	

SMILES	IC50 (CDK4/CyclinD1; CDK4/CyclinD1, 200 μM ATP)	IC50 (CDK2/CyclinE1; CDK2/CyclinE1, 100 μM ATP)	IC50 (T47D breast cancer cells; Homo sapiens, T47D)	IC50 (CDK4/CyclinD1; CDK4/CyclinD1)	IC50 (CDK2/CyclinE1; CDK2/CyclinE1)	IC50 (T47D breast cancer cells)
CNC1CCN(c2ccc(Nc3nccc(-c4ccn5ncc(C(C)C)c5c4)n3)nc2)C(=O)C1 (single isomer, unassigned) [Synthetic Example 206, 1-[6-[[4-(3-isopropylpyrazolo[1,5-a]pyridin-5-yl)pyrimidin-2-yl]amino]-3-pyridyl]-4-(methylamino)piperidin-2-one]	< 10 nM	< 10 nM				< 100 nM
Cc1nc2c(F)nc(-c3ccnc(Nc4ccc(N5CCCC(N(C)C)C5=O)cn4)n3)cc2n1C(C)C (single isomer, unassigned) [Synthetic Example 302, 3-(dimethylamino)-1-[6-[[4-(4-fluoro-1-isopropyl-2-methyl-imidazo[4,5-c]pyridin-6-yl)pyrimidin-2-yl]amino]-3-pyridyl]piperidin-2-one]	< 10 nM	> 1000 nM	< 100 nM			
Cc1nc2c(F)nc(-c3ccnc(Nc4ccc(N5CCCC(N(C)C)C5=O)cn4)n3)cc2n1C(C)C (single isomer, unassigned) [Synthetic Example 303, 3-(dimethylamino)-1-[6-[[4-(4-fluoro-1-isopropyl-2-methyl-imidazo[4,5-c]pyridin-6-yl)pyrimidin-2-yl]amino]-3-pyridyl]piperidin-2-one]	< 10 nM	> 1000 nM				< 100 nM
CC(C)c1cnn2ccc(-c3ccnc(Nc4ccc(C(=O)N5CCC(NC6CC6)C5)cc4)n3)cc12 (stereo not drawn) [compound 21]	< 10 nM	< 10 nM				< 100 nM
